Several values for one entry are separate records, joined by “and”; a condition that tells them apart may be missing. Equal entries are not always repeated. Inconclusive results and toxic doses are left out.
Tested on: B6C3F1 mice, intracerebral ependymoblastoma, median survival T/C
Assay: NCI In Vivo Anticancer Drug Screen. Data for tumor model Ependymoblastoma (intracerebral) in B6C3F1 mice
Conditions: endpoint: median survival time, higher = longer survival
Experimental: The antitumor activity of compounds was measured in mice bearing transplantable tumors. Survival or tumor size were measured and the results are expressed as the measurement made in the treated group (T) divided by the measurement made in the vehicle treated control group (C). The tumor model used in this assay is Ependymoblastoma (intracerebral) in B6C3F1 mice

## O=C(O)CC(NC(=O)CP(=O)(O)O)C(=O)O (stereo not drawn)
dose: 1.0 mg/kg/injection, schedule: Q01DX005 (ip), vehicle: saline
  T/C: 117 % of control
dose: 2.0 mg/kg/injection, schedule: Q01DX005 (ip), vehicle: saline
  T/C: 104 % of control
dose: 4.0 mg/kg/injection, schedule: Q01DX005 (ip), vehicle: saline
  T/C: 108 % of control
dose: 8.0 mg/kg/injection, schedule: Q01DX005 (ip), vehicle: saline
  T/C: 104 % of control
dose: 16.0 mg/kg/injection, schedule: Q01DX005 (ip), vehicle: saline
  T/C: 107 % of control
dose: 27.0 mg/kg/injection, schedule: Q#ADX018 (ip), vehicle: saline
  T/C: 99 % of control
dose: 32.0 mg/kg/injection, schedule: Q01DX005 (ip), vehicle: saline
  T/C: 101 % of control and 111 % of control
dose: 32.0 mg/kg/injection, schedule: Q04DX003 (ip), vehicle: saline
  T/C: 96 % of control
dose: 45.0 mg/kg/injection, schedule: Q01DX009 (ip), vehicle: saline with Tween-80
  T/C: 90 % of control
dose: 45.0 mg/kg/injection, schedule: Q12HX010 (ip), vehicle: saline
  T/C: 103 % of control
dose: 45.0 mg/kg/injection, schedule: Q#A X010 (ip), vehicle: saline
  T/C: 180 % of control
dose: 45.0 mg/kg/injection, schedule: Q#ADX018 (ip), vehicle: saline
  T/C: 102 % of control
dose: 64.0 mg/kg/injection, schedule: Q01DX005 (ip), vehicle: saline
  T/C: 104 % of control and 114 % of control
dose: 64.0 mg/kg/injection, schedule: Q04DX003 (ip), vehicle: saline
  T/C: 109 % of control
dose: 90.0 mg/kg/injection, schedule: Q01DX005 (ip), vehicle: saline
  T/C: 95 % of control and 100 % of control
dose: 90.0 mg/kg/injection, schedule: Q01DX009 (ip), vehicle: saline with Tween-80
  T/C: 109 % of control
dose: 90.0 mg/kg/injection, schedule: Q#A X010 (ip), vehicle: saline
  T/C: 187 % of control
dose: 90.0 mg/kg/injection, schedule: Q#ADX018 (ip), vehicle: saline
  T/C: 95 % of control
dose: 100.0 mg/kg/injection, schedule: Q12HX010 (ip), vehicle: saline
  T/C: 109 % of control
dose: 128.0 mg/kg/injection, schedule: Q01DX005 (ip), vehicle: saline
  T/C: 101 % of control and 117 % of control
dose: 128.0 mg/kg/injection, schedule: Q04DX003 (ip), vehicle: saline
  T/C: 105 % of control
dose: 180.0 mg/kg/injection, schedule: Q01DX005 (ip), vehicle: saline
  T/C: 106 % of control and 110 % of control
dose: 180.0 mg/kg/injection, schedule: Q12HX010 (ip), vehicle: saline
  T/C: 107 % of control
dose: 180.0 mg/kg/injection, schedule: Q#A X010 (ip), vehicle: saline
  T/C: 172 % of control
dose: 256.0 mg/kg/injection, schedule: Q01DX005 (ip), vehicle: saline
  T/C: 110 % of control
dose: 256.0 mg/kg/injection, schedule: Q04DX003 (ip), vehicle: saline
  T/C: 114 % of control

## NC(C/[N+]([O-])=N/O)C(=O)O (stereo not drawn)
dose: 7.0 mg/kg/injection, schedule: Q01DX005 (ip), vehicle: saline with Tween-80
  T/C: 111 % of control
dose: 12.5 mg/kg/injection, schedule: Q01DX009 (ip), vehicle: Klucel (hydroxypropylcellulose) (HPC)
  T/C: 110 % of control
dose: 14.0 mg/kg/injection, schedule: Q01DX005 (ip), vehicle: saline with Tween-80
  T/C: 109 % of control
dose: 16.0 mg/kg/injection, schedule: Q01DX005 (ip), vehicle: saline with Tween-80
  T/C: 114 % of control
dose: 25.0 mg/kg/injection, schedule: Q01DX009 (ip), vehicle: Klucel (hydroxypropylcellulose) (HPC)
  T/C: 119 % of control
dose: 28.0 mg/kg/injection, schedule: Q01DX005 (ip), vehicle: saline with Tween-80
  T/C: 118 % of control
dose: 32.0 mg/kg/injection, schedule: Q01DX005 (ip), vehicle: saline with Tween-80
  T/C: 118 % of control
dose: 50.0 mg/kg/injection, schedule: Q01DX009 (ip), vehicle: Klucel (hydroxypropylcellulose) (HPC)
  T/C: 112 % of control
dose: 56.0 mg/kg/injection, schedule: Q01DX005 (ip), vehicle: saline with Tween-80
  T/C: 119 % of control
dose: 64.0 mg/kg/injection, schedule: Q01DX005 (ip), vehicle: saline with Tween-80
  T/C: 117 % of control
dose: 112.0 mg/kg/injection, schedule: Q01DX005 (ip), vehicle: saline with Tween-80
  T/C: 122 % of control
dose: 256.0 mg/kg/injection, schedule: Q01DX005 (ip), vehicle: saline with Tween-80
  T/C: 109 % of control

## O=C(NC1CCCCC1)OCc1c(COC(=O)NC2CCCCC2)c(-c2ccc(Cl)c(Cl)c2)n2c1CCC2
dose: 50.0 mg/kg/injection, schedule: Q01DX005 (ip), vehicle: saline with Tween-80
  T/C: 99 % of control and 102 % of control
dose: 100.0 mg/kg/injection, schedule: Q01DX005 (ip), vehicle: saline with Tween-80
  T/C: 92 % of control and 108 % of control
dose: 200.0 mg/kg/injection, schedule: Q01DX005 (ip), vehicle: saline with Tween-80
  T/C: 104 % of control and 115 % of control
dose: 400.0 mg/kg/injection, schedule: Q01DX005 (ip), vehicle: saline with Tween-80
  T/C: 115 % of control and 118 % of control
dose: 800.0 mg/kg/injection, schedule: Q01DX005 (ip), vehicle: saline with Tween-80
  T/C: 106 % of control and 110 % of control

Source: PubChem BioAssay AID226 (DTP/NCI, 2004)
